# Reference: patent US20160297830A1, “NOVEL COMPOUNDS USEFUL FOR THE TREATMENT OF BACTERIAL INFECTIOUS DISEASES” (GALAPAGOS NV, priority 2013, published 2016)
# Tested on: H. influenza Hi4 efflux pump KO
# Experiment: Antibacterial activity assay (MIC), H. influenza Hi4
# Assay type: cell-based
row,SMILES,MIC [µg/mL]
1,"COC[C@@H]1[C@@H](O)[C@@H]2[C@H]3C=C[C@@H]4[C@@H](COC)C(=O)O[C@H]([C@H](O)COC)[C@H](C)/C=C(\C)[C@@]24O[C@H]3[C@@H]1OC(=O)c1cc(Br)c(F)[nH]1 [Compound 37, 8-O-4-Bromo-5-Fluoro-1H-pyrrole-2′-carbonylbranimycin]",16
2,"COC[C@@H]1[C@@H](O)[C@@H]2[C@H]3C=C[C@@H]4[C@@H](COC)C(=O)O[C@H]([C@H](O)COC)[C@H](C)/C=C(\C)[C@@]24O[C@H]3[C@@H]1OC(=O)c1cc(F)c(F)[nH]1 [Compound 38, 8-O-4,5-Difluoro-1H-pyrrole-2′-carbonylbranimycin]",16
3,"COC[C@@H]1[C@@H](O)[C@@H]2[C@H]3C=C[C@@H]4[C@@H](COC)C(=O)O[C@H]([C@H](O)COC)[C@H](C)/C=C(\C)[C@@]24O[C@H]3[C@@H]1OC(=O)c1cc(C)n[nH]1 [Compound 39, 8-O-5-Methyl-1H-Pyrazole-3′-carbonylbranimycin]",> 64
4,"COCC(=NO)[C@H]1OC(=O)[C@H](COC)[C@H]2C=C[C@H]3[C@H]4O[C@]2(/C(C)=C/[C@H]1C)[C@@H]3[C@H](O)[C@@H](COC)[C@H]4OC(=O)c1cc(F)c[nH]1 [Compound 40, 18-Deoxy-18-oximino-8-O-4-Fluoro-1H-pyrrole-2′-carbonylbranimycin]",2
5,"COCC(=NO)[C@H]1OC(=O)[C@H](COC)[C@H]2C=C[C@H]3[C@H]4O[C@]2(/C(C)=C/[C@H]1C)[C@@H]3[C@H](O)[C@@H](COC)[C@H]4OC(=O)c1cc(Cl)c[nH]1 [Compound 41, 18-Deoxy-18-oximino-8-O-4-Chloro-1H-pyrrole-2′-carbonylbranimycin]",8
6,"COCC(=NOC(C)=O)[C@H]1OC(=O)[C@H](COC)[C@H]2C=C[C@H]3[C@H]4O[C@]2(/C(C)=C/[C@H]1C)[C@@H]3[C@H](O)[C@@H](COC)[C@H]4OC(=O)c1cc(Cl)c[nH]1 [Compound 42, 18-Acetylimino-18-deoxy-8-O-4-Chloro-1H-pyrrole-2′-carbonylbranimycin]",4
7,"CO[C@H]1C[C@H]2C=C[C@H]3[C@H]4O[C@]2(/C(C)=C/[C@@H](C)[C@@H]([C@@H](C)O)OC1=O)[C@@H]3[C@H](O)[C@@H](C)[C@H]4OC(=O)c1ccc[nH]1 [Nargenicin A1, reference compound]",0.5
8,"COC[C@@H]1[C@@H](O)[C@@H]2[C@H]3C=C[C@@H]4C[C@H](O)C(=O)O[C@H]([C@H](O)COC)[C@H](C)/C=C(\C)[C@@]24O[C@H]3[C@@H]1OC(=O)c1ccc[nH]1 [Nargenicin B1, reference compound]",8
9,"CO[C@H]1C[C@H]2C=C[C@H]3[C@H]4O[C@]2(/C(C)=C/[C@@H](C)[C@@H]([C@@H](C)O)OC1=O)[C@@H]3[C@H](O)[C@@H](C)[C@H]4O [Nodusmicin, reference compound]",2
